# In patent US9458105B2, “Inhibitors of Bruton's tyrosine kinase” (Hoffmann-La Roche Inc., priority 2012, dated 2016):
# Target: Bruton's Tyrosine Kinase (inactivated state) (Homo sapiens (Human), UniProt Q06187)
# Test: Bruton's Tyrosine Kinase (BTK) Inhibition TR-FRET (Time Resolved FRET) competition assay
# Format: binding
# Conditions: BTK-Eu / Kinase Tracer 178 competition, incubated 18-24 h at 14° C.
# Method: Bruton's Tyrosine Kinase (BTK) Inhibition TR-FRET (Time Resolved FRET) Assay
# This BTK competition assay measures compound potency (IC50) for the inactivated state of Bruton's Tyrosine Kinase using FRET (Forster/Fluorescence Resonance Energy Transfer) technology. The BTK-Eu complex was incubated on ice one hour prior to use at a starting concentration of 50 nM BTK-Bioease™: 10 nM Eu-streptavidin (Perkin-Elmer Catalog #AD0062). The assay buffer consisted of 20 mM HEPES (pH 7.15), 0.1 mM DTT, 10 mM MgCl2, 0.5 mg/ml BSA with 3% Kinase Stabilizer (Fremont Biosolutions, Catalog #STB-K02). After 1 h, the reaction mixture from above was diluted 10 fold in assay buffer to make 5 nM BTK: 1 nM Eu-Streptavidin complex (donor fluorophore). 18 μl of a mixture of 0.11 nM BTK-Eu and 0.11 nM Kinase Tracer 178 (Invitrogen, Catalog #PV5593,) with BTK-Eu alone as no negative control, was then dispensed into 384-well flat bottom plates (Greiner, 784076). Compounds to be tested in assay were prepared as 10× concentrations and serial dilution in half-log increments was performed in DMSO so as to generate 10 point curves. To initiate the FRET reaction, compounds prepared as 10× stock in DMSO was added to the plates and the plates were incubated 18-24 h at 14° C.
# After the incubation the plates were read on a BMG Pherastar Fluorescent plate reader (or equivalent) and used to measure the emission energy from the europium donor fluorophore (620 nm emission) and the FRET (665 nm emission). The negative control well values were averaged to obtain the mean minimum. The positive “no inhibitor” control wells were averaged to obtain the mean maximum. Percent of maximal FRET was calculated using following equation: % max FRET=100×[(FSRcmpd−FSRmean min)/(FSRmean max−FSRmean min)]
# where FSR=FRET Signal ratio. % Max FRET curves were plotted in Activity Base (Excel) and the IC50(%), hill slope, z′ and % CV were determined. The mean IC50 and standard deviation will be derived from duplicate curves (singlet inhibition curves from two independent dilutions) using Microsoft Excel.
# Representative compound data for this assay are listed below in Table II.
# Bruton's Tyrosine Kinase (inactivated state), sequence (Q06187 whole entry): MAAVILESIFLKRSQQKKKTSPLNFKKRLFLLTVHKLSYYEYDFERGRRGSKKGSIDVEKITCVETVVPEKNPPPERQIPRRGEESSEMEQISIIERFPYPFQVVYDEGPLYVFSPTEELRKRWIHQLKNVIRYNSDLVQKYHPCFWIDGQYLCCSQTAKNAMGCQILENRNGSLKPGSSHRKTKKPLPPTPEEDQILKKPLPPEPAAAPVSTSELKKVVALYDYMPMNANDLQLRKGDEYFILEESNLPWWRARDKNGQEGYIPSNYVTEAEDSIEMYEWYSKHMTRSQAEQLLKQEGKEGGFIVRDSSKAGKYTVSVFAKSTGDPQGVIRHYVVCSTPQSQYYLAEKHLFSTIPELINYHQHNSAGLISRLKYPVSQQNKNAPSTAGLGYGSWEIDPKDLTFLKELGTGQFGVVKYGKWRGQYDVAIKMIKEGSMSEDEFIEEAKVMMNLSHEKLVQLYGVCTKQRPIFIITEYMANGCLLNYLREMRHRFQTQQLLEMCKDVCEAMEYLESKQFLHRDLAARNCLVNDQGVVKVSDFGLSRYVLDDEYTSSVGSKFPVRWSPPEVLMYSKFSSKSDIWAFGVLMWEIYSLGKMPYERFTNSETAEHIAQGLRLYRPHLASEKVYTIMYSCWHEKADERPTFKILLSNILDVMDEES
row,IC50 [µM],SMILES
1,3.32,"CC(C)(C)c1cc(F)c2c(=O)n(Cc3ccc(-c4cc[nH]c(=O)c4)cc3)ncc2c1 [Compound I-1, 6-tert-Butyl-8-fluoro-2-[4-(2-oxo-1,2-dihydro-pyridin-4-yl)-benzyl]-2H-phthalazin-1-one]"
2,0.983,"CC(C)(C)c1cc(F)c2c(=O)n(Cc3ccc(-c4cc[nH]c(=O)c4)cc3F)ncc2c1 [Compound I-2, 6-tert-Butyl-8-fluoro-2-[2-fluoro-4-(2-oxo-1,2-dihydro-pyridin-4-yl)-benzyl]-2H-phthalazin-1-one]"
3,0.366,"CC(C)(C)c1cc(F)c2c(=O)n(-c3cccc(-c4cc[nH]c(=O)c4)c3CO)ncc2c1 [Compound I-3, 6-tert-Butyl-8-fluoro-2-[2-hydroxymethyl-3-(2-oxo-1,2-dihydro-pyridin-4-yl)-phenyl]-2H-phthalazin-1-one]"
4,13.3,"CC(C)(C)c1cc(F)c2c(=O)n(Cc3c(F)cc(-c4cc[nH]c(=O)c4)cc3F)ncc2c1 [Compound I-4, 6-tert-Butyl-2-[2,6-difluoro-4-(2-oxo-1,2-dihydro-pyridin-4-yl)-benzyl]-8-fluoro-2H-phthalazin-1-one]"
5,3.14,"CC(C)(C)c1cc(F)c2c(=O)n(Cc3ccc(-c4cc[nH]c(=O)c4)cc3CO)ncc2c1 [Compound I-5, 6-tert-Butyl-8-fluoro-2-[2-hydroxymethyl-4-(2-oxo-1,2-dihydro-pyridin-4-yl)-benzyl]-2H-phthalazin-1-one]"
6,0.0142,"Cn1cc(-c2cc(-c3ccc(Cn4ncc5cc(C(C)(C)C)cc(F)c5c4=O)c(F)c3)cc(=O)[nH]2)cn1 [Compound I-6, 6-tert-Butyl-8-fluoro-2-{2-fluoro-4-[6-(1-methyl-1H-pyrazol-4-yl)-2-oxo-1,2-dihydro-pyridin-4-yl]-benzyl}-2H-phthalazin-1-one]"
7,6.91,"Cc1c(NC(=O)c2ccc(C(C)(C)C)cc2)cccc1-c1cc[nH]c(=O)c1 [Compound I-7, 4-tert-Butyl-N-[2-methyl-3-(2-oxo-1,2-dihydro-pyridin-4-yl)-phenyl]-benzamide]"
8,> 100,"CC(C)(C)c1cc(F)c2c(=O)n(Cc3ccc(-c4cc[nH]c(=O)c4)c(CO)c3)ncc2c1 [Compound I-8, 6-tert-Butyl-8-fluoro-2-[3-hydroxymethyl-4-(2-oxo-1,2-dihydro-pyridin-4-yl)-benzyl]-2H-phthalazin-1-one]"
9,52.3,"CC(C)(C)c1cc(F)c2c(=O)n(Cc3cc(CO)c(-c4cc[nH]c(=O)c4)cc3F)ncc2c1 [Compound I-9, 6-tert-Butyl-8-fluoro-2-[2-fluoro-5-hydroxymethyl-4-(2-oxo-1,2-dihydro-pyridin-4-yl)-benzyl]-2H-phthalazin-1-one]"
10,0.00711,"Cn1cc(-c2cc(-c3ccc(CN4Cc5cc(C(C)(C)C)sc5C4=O)c(F)c3)cc(=O)[nH]2)cn1 [Compound I-10, 2-tert-Butyl-5-{2-fluoro-4-[6-(1-methyl-1H-pyrazol-4-yl)-2-oxo-1,2-dihydro-pyridin-4-yl]-benzyl}-4,5-dihydro-thieno[2,3-c]pyrrol-6-one]"
